Where a name gives a salt, the structure may show the parent alone.
How the values were obtained:
[1] = test system: Pseudotyped HCV GT1b particles (HCVpp), entry into Huh7-high CD81 cells; experiment: microbe, parasite or virus in culture; format: cell-based, HCV GT1b Con1 strain; conditions: Hepatitis C virus, GT1B, 72 h, read-out: HCVpp GT-1b (EC50, μM)
[2] = test system: pseudotyped VSV G particles (VSVpp) in Huh7-high CD81 cells; experiment: microbe, parasite or virus in culture; format: cell-based, vesicular stomatitis virus; conditions: Vesicular stomatitis virus, 72 h, read-out: VSVpp (EC50, μM)

| SMILES | EC50 [1] [µM] | EC50 [2] [µM] |
| --- | --- | --- |
| CC(C)(C)N1Cc2ccc(-c3c(Cl)cc(Nc4n[nH]c(N)n4)cc3C(F)(F)F)cc2S1(=O)=O [Compound 10, N*3*-[4-(2-tert-Butyl-1,1-dioxo-2,3-dihydro-1H-1lambda*6*-benzo[d]isothiazol-6-yl)-3-chloro-5-trifluoromethyl-phenyl]-1H-[1,2,4]triazole-3,5-diamine] | 0.015 | > 10 |
| Nc1nc(Nc2cc(Cl)c(-c3ccc(OC4CCCN(CCC(F)(F)F)C4)cc3)c(C(F)(F)F)c2)n[nH]1 (centres unmarked) [Compound 133, N*3*-{6-Chloro-2-trifluoromethyl-4′-[1-(3,3,3-trifluoro-propyl)-piperidin-3-yloxy]-biphenyl-4-yl}-1H-[1,2,4]triazole-3,5-diamine hydrochloride] | 0.13 | > 10 |
| Nc1nc(Nc2cc(Cl)c(-c3ccc(NC(=O)C4CCS(=O)(=O)CC4)cc3)c(C(F)(F)F)c2)n[nH]1 [Compound 239] | 0.122 | > 10 |
| COc1ccc(-c2c(Cl)cc(Nc3n[nH]c(N)n3)cc2C(F)(F)F)cc1S(=O)(=O)N1CCCC1 [Compound 203, N3-(2-chloro-4′-methoxy-3′-(pyrrolidin-1-ylsulfonyl)-6-(trifluoromethyl)biphenyl-4-yl)-1H-] | 0.008 | 10.6 |
| Nc1nc(Nc2cc(Cl)c(-c3cccc(Cl)c3Cl)c(Cl)c2)n[nH]1 [Compound 109, N-3-(2,6,2′,3′-Tetrachloro-biphenyl-4-yl)-1H-[1,2,4]triazole-3,5-diamine] | 0.74 | 46.5 |
| NCCCCOc1ccc(-c2c(Cl)cc(Nc3n[nH]c(N)n3)cc2Cl)cc1 [Compound 49, N*3*-[4′-(4-Amino-butoxy)-2,6-dichloro-biphenyl-4-yl]-1H-[1,2,4]triazole-3,5-diamine; trifluoro-acetate] | 0.455 | > 10 |
| CCCOC(=O)Nc1ccc(-c2c(Cl)cc(Nc3n[nH]c(N)n3)cc2C(F)(F)F)cc1 [Compound 237, [4′-(5-amino-1H-[1,2,4]triazol-3-ylamino)-2′-chloro-6′-trifluoromethyl-biphenyl-4-yl]-carbamic acid propyl ester] | 0.058 | 3.67 |
| CC(C)(C)OC(=O)N1CCC[C@H]1COc1ccc(-c2c(Cl)cc(Nc3n[nH]c(N)n3)cc2Cl)cc1 [Compound 280, (S)-2-[4′-(5-Amino-1H-[1,2,4]triazol-3-ylamino)-2′,6′-dichloro-biphenyl-4-yloxymethyl]-pyrrolidine-1-carboxylic acid tert-butyl ester] | 0.401 | > 10 |
| CS(=O)(=O)NCc1cccc(-c2c(Cl)cc(Nc3n[nH]c(N)n3)cc2C(F)(F)F)c1 [Compound 199, N-((4′-(5-amino-1H-1,2,4-triazol-3-ylamino)-2′-chloro-6′-(trifluoromethyl)biphenyl-3-yl)methyl)methanesulfonamide] | 0.196 | 31.8 |
| CC(C)(C)OC(=O)N1CCC(Oc2ccc(-c3c(Cl)cc(Nc4n[nH]c(N)n4)cc3C(F)(F)F)cc2)CC1 [Compound 138, 4-[4′-(5-Amino-1H-[1,2,4]triazol-3-ylamino)-6′-chloro-2′-trifluoromethyl-biphenyl-4-yloxy]-piperidine-1-carboxylic acid tert-butyl ester] | 0.162 | > 10 |
| CN1CCCC(Oc2ccc(-c3c(Cl)cc(Nc4n[nH]c(N)n4)cc3C(F)(F)F)cc2)C1 (centres unmarked) [Compound 132, N*3*-[6-Chloro-4′-(1-methyl-piperidin-3-yloxy)-2-trifluoromethyl-biphenyl-4-yl]-1H-[1,2,4]triazole-3,5-diamine hydrochloride] | 0.088 | 6.13 |
| CS(=O)(=O)c1ccc(-c2ccc(Nc3n[nH]c(N)n3)cc2S(F)(F)(F)(F)F)cc1 [Compound 288, N*3*-(4′-Methanesulfonyl-2-pentafluorosulfur-biphenyl-4-yl)-1H-[1,2,4]triazole-3,5-diamine] | 1.23 | 8.93 |
| CS(=O)(=O)NCCc1ccc(-c2c(Cl)cc(Nc3n[nH]c(N)n3)cc2C(F)(F)F)cc1 [Compound 38, N-{2-[4′-(5-Amino-1H-[1,2,4]triazol-3-ylamino)-2′-chloro-6′-trifluoromethyl-biphenyl-4-yl]-ethyl}-methanesulfonamide] | 0.087 | 7.01 |
| Nc1nc(Nc2cc(Cl)c(-c3ccc4c(c3)NC(=O)C4)c(Cl)c2)n[nH]1 [Compound 256] | 0.594 | 8.69 |
| CN(C)C(=O)c1ccc(-c2c(Cl)cc(Nc3n[nH]c(N)n3)cc2Cl)cc1 [Compound 113, 4′-(5-Amino-1H-[1,2,4]triazol-3-ylamino)-2′,6′-dichloro-biphenyl-4-carboxylic acid dimethylamide] | 0.079 | 43.2 |
| CC1(NS(=O)(=O)c2ccc(-c3c(Cl)cc(Nc4n[nH]c(N)n4)cc3C(F)(F)F)cc2)CC1 [Compound 206, 4′-(5-amino-1H-1,2,4-triazol-3-ylamino)-2′-chloro-N-(1-methylcyclopropyl)-6′-(trifluoromethyl)biphenyl-4-sulfonamide] | 0.017 | 9.62 |

| SMILES | EC50 [1] [µM] | EC50 [2] [µM] |
| --- | --- | --- |
| Nc1nc(Nc2cc(Cl)c(-c3ccc(S(N)(=O)=O)cc3)c(Cl)c2)n[nH]1 [Compound 253] | 0.026 | 0.6 |
| CS(=O)(=O)n1ccc2cc(-c3c(Cl)cc(Nc4n[nH]c(N)n4)cc3Cl)ccc21 [Compound 42, N*3*-[3,5-Dichloro-4-(1-methanesulfonyl-1H-indol-5-yl)-phenyl]-1H-[1,2,4]triazole-3,5-diamine] | 0.212 | 2.27 |
| Nc1nc(Nc2cc(Cl)c(-c3ccc(S(=O)(=O)NC4COC4)cc3)c(C(F)(F)F)c2)n[nH]1 [Compound 295, 4′-(5-amino-1H-1,2,4-triazol-3-ylamino)-2′-chloro-N-(oxetan-3-yl)-6′-(trifluoromethyl)biphenyl-4-sulfonamide] | 0.022 | 10 |
| COc1ccc(-c2c(Cl)cc(Nc3n[nH]c(N)n3)cc2C(F)(F)F)cc1S(=O)(=O)NC1CCN(C(C)=O)CC1 [Compound 227, 4′-(5-Amino-1H-[1,2,4]triazol-3-ylamino)-6′-chloro-4-methoxy-2′-trifluoromethyl-biphenyl-3-sulfonic acid (1-acetyl-piperidin-4-yl)-amide] | 0.042 | > 10 |
| CC1(NS(=O)(=O)c2ccc(-c3c(Cl)cc(Nc4n[nH]c(N)n4)cc3C(F)(F)F)cc2)CNC1 [Compound 207, 4′-(5-amino-1H-1,2,4-triazol-3-ylamino)-2′-chloro-N-(3-methylazetidin-3-yl)-6′-(trifluoromethyl)biphenyl-4-sulfonamide hydrochloride] | 0.029 | > 10 |
| CC(C)(C)OC(=O)N1CCC(Oc2cccc(-c3c(Cl)cc(Nc4n[nH]c(N)n4)cc3C(F)(F)F)c2)CC1 [Compound 21, 4-[4′-(5-Amino-1H-[1,2,4]triazol-3-ylamino)-2′-chloro-6′-trifluoromethyl-biphenyl-3-yloxy]-piperidine-1-carboxylic acid tert-butyl ester] | 0.039 | > 10 |
| Nc1nc(Nc2cc(Cl)c(-c3ccc(OC[C@@H]4CCCN4)cc3)c(C(F)(F)F)c2)n[nH]1 [Compound 270, N*3*-[6-Chloro-4′-((S)-1-pyrrolidin-2-ylmethoxy)-2-trifluoromethyl-biphenyl-4-yl]-1H-[1,2,4]triazole-3,5-diamine] | 0.117 | 33.3 |
| CC1(O)CCN(S(=O)(=O)c2ccc(-c3c(Cl)cc(Nc4n[nH]c(N)n4)cc3C(F)(F)F)cc2)CC1 [Compound 66, 1-[4′-(5-Amino-1H-[1,2,4]triazol-3-ylamino)-6′-chloro-2′-trifluoromethyl-biphenyl-4-sulfonyl]-4-methyl-piperidin-4-ol] | 0.101 | 7.32 |
| Nc1nc(Nc2cc(Cl)c(-c3ccc(S(=O)(=O)N4CCS(=O)(=O)CC4)cc3)c(C(F)(F)F)c2)n[nH]1 [Compound 45, N*3*-[2-Chloro-4′-(1,1-dioxo-1lambda*6*-thiomorpholine-4-sulfonyl)-6-trifluoromethyl-biphenyl-4-yl]-1H-[1,2,4]triazole-3,5-diamine] | 0.101 | > 10 |
| Nc1nc(Nc2ccc(-c3c(Cl)cccc3Cl)cc2)n[nH]1 [Compound 258] | 20.2 | 26.2 |
| CC(C)(C)OC(=O)N1CCCC(S(=O)(=O)c2ccc(-c3c(Cl)cc(Nc4n[nH]c(N)n4)cc3C(F)(F)F)cc2)C1 (centres unmarked) [Compound 6, 3-[4′-(5-Amino-1H-[1,2,4]triazol-3-ylamino)-2′-chloro-6′-trifluoromethyl-biphenyl-4-sulfonyl]-piperidine-1-carboxylic acid tert-butyl ester] | 0.008 | 2.56 |
| CS(=O)(=O)c1ccc(-c2ccc(Nc3n[nH]c(N)n3)cc2Cl)c(F)c1 [Compound 157, N3-(2-chloro-2′-fluoro-4′-(methylsulfonyl)biphenyl-4-yl)-1H-1,2,4-triazole-3,5-diamine] | 1.33 | 5.16 |
| CS(=O)(=O)Nc1cccc(-c2c(F)cc(Nc3nc(N)n[nH]3)cc2C(F)(F)F)c1 [Compound 243, N-[4′-(5-Amino-2H-[1,2,4]-triazol-3-ylamino)-6′-fluoro-2′-trifluoromethyl-biphenyl-3-yl]-methanesulfonamide] | 0.213 | > 10 |
| Nc1nc(Nc2cc(Cl)c(-c3ccc(Cl)cc3Cl)c(Cl)c2)n[nH]1 [Compound 124, N-3-(2,6,2′,4′-Tetrachloro-biphenyl-4-yl)-1H-[1,2,4]triazole-3,5-diamine] | 1.01 | 4.49 |
| CNCCNS(=O)(=O)c1ccc(-c2c(Cl)cc(Nc3n[nH]c(N)n3)cc2C(F)(F)F)cc1 [Compound 213, 4′-(5-amino-1H-1,2,4-triazol-3-ylamino)-2′-chloro-N-(2-(methylamino)ethyl)-6′-(trifluoromethyl)biphenyl-4-sulfonamide hydrochloride] | 0.062 | > 10 |
